This note sets out measurements from patent US9688710B2, “Inhibitors of sodium glucose cotransporter 1” (LEXICON PHARMACEUTICALS, INC., priority 2012, dated 2017).

Test [1] addresses Human sodium/glucose co-transporter type 1 (SGLT1) (Homo sapiens (Human), UniProt P13866). Description: In vitro human SGLT1 inhibition assay (14C-AMG uptake). It counts as cell-based. The conditions noted are these: HEK293 cells expressing human HA-SGLT1, 14C-AMG uptake. Set-up: key to SGLT1 (human SGLT1 IC50): ***: a value less than 0.01 μM; **: a value less than 0.1 μM; *: a value less than 1 μM; —: a value not measured or exceeding μM. How it is done: Human sodium/glucose co-transporter type 1 (SGLT1; accession number NP_000334; GI: 4507031) was cloned into pIRESpuro2 vector for mammalian expression (construct: HA-SGLT1-pIRESpuro2).
HEK293 cells were transfected with the human HA-SGLT1-pIRESpuro2 vector and the bulk stable cell line was selected in presence of 0.5 μg/mL of puromycin. Human HA-SGLT1 cells were maintained in DMEM media containing 10% FBS, 1% GPS and 0.5 μg/mL of puromycin.
The HEK293 cells expressing the human HA-SGLT1 were seeded in 384 well plates (30,000 cells/well) in DMEM media containing 10% FBS, 1% GPS and 0.5 μg/mL of puromycin, then incubated overnight at 37 C, 5% CO2. Cells were then washed with uptake buffer (140 mM NaCl, 2 mM KCl, 1 mM CaCl2, 1 mM MgCl2, 10 mM HEPES, 5 mM Tris, 1 mg/mL bovine serum albumin (BSA), pH 7.3). Twenty microliters of uptake buffer with or without testing compounds were added to the cells. Then, 20 microliters of uptake buffer containing ^14C-AMG (100 nCi) were also added to cells. The cell plates were incubated at 37° C., 5% CO2 for 1-2 hours. After washing the cells with uptake buffer, scintillation fluid was added (40 microliters/well) and ^14C-AMG uptake was measured by counting radioactivity using a scintillation coulter (TopCoulter NXT; Packard Instruments).

In test [2] the target is Human sodium/glucose co-transporter type 2 (SGLT2) (Homo sapiens (Human), UniProt P31639). Description: In vitro human SGLT2 inhibition assay (14C-AMG uptake). Format: cell-based. Set-up: key to SGLT2 (human SGLT2 IC50): ***: a value less than 0.01 μM; **: a value less than 0.1 μM; *: a value less than 1 μM; —: a value not measured or exceeding μM. The following applies: HEK293 cells expressing human HA-SGLT2, 14C-AMG uptake. As to the method: Human sodium/glucose co-transporter type 2 (SGLT2; accession number P31639; GI:400337) was cloned into pIRESpuro2 vector for mammalian expression (construct: HA-SGLT2-pIRESpuro2).
HEK293 cells were transfected with the human HA-SGLT2-pIRESpuro2 vector and the bulk stable cell line was selected in presence of 0.5 μg/mL of puromycin. Human HA-SGLT2 cells were maintained in DMEM media containing 10% FBS, 1% GPS and 0.5 μg/mL of puromycin.
The HEK293 cells expressing the human HA-SGLT2 were seeded in 384 well plates (30,000 cells/well) in DMEM media containing 10% FBS, 1% GPS and 0.5 μg/mL of puromycin, then incubated overnight at 37 C, 5% CO2. Cells were then washed with uptake buffer (140 mM NaCl, 2 mM KCl, 1 mM CaCl2, 1 mM MgCl2, 10 mM HEPES, 5 mM Tris, 1 mg/mL bovine serum albumin (BSA), pH 7.3). Twenty microliters of uptake buffer with or without testing compounds were added to the cells. Then, 20 microliters of uptake buffer containing ^14C-AMG (100 nCi) were added to the cells. The cell plates were incubated at 37° C., 5% CO2 for 1-2 hours. After washing the cells with uptake buffer, scintillation fluid was added (40 microliters/well) and ^14C-AMG uptake was measured by counting radioactivity using a scintillation coulter (TopCoulter NXT; Packard Instruments).

Sequence of Human sodium/glucose co-transporter type 1 (SGLT1) (P13866 whole entry): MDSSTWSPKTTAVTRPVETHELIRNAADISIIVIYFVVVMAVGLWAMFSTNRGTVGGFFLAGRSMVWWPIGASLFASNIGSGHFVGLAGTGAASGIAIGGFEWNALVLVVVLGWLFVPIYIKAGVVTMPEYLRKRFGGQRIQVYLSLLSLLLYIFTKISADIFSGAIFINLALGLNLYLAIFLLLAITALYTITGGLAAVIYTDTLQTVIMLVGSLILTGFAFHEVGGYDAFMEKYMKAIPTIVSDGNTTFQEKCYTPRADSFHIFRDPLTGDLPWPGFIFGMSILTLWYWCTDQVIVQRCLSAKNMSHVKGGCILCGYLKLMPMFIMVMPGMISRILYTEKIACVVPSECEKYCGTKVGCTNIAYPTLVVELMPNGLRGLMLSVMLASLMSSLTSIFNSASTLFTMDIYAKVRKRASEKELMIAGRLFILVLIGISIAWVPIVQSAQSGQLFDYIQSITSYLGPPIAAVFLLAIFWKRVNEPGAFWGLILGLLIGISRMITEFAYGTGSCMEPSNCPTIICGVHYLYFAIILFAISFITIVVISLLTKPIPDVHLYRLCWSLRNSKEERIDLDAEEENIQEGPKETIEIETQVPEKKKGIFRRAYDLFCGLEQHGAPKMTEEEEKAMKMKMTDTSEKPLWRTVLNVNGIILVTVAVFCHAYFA
Sequence of Human sodium/glucose co-transporter type 2 (SGLT2) (P31639 whole entry): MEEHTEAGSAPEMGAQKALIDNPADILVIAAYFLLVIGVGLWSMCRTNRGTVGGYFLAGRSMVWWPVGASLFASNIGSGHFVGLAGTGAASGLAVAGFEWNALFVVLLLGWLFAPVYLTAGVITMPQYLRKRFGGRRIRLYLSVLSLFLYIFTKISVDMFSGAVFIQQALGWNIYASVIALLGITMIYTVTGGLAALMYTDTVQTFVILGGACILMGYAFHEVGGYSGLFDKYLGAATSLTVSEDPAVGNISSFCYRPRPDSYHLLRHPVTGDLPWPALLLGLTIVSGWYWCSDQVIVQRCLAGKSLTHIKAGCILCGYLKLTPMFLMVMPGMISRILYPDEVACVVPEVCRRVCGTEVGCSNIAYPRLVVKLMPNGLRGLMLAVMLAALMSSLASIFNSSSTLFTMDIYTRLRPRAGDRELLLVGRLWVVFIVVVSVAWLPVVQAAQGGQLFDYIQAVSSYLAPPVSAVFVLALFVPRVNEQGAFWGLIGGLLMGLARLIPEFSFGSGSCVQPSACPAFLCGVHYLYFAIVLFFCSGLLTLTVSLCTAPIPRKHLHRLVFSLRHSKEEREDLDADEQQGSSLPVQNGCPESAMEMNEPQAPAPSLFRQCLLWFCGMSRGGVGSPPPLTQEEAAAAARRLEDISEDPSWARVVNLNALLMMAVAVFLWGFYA

The IC50 is the concentration at which inhibition is half-maximal. For the compound `CS[C@H]1O[C@@H](c2ccc(Cl)c(Cc3ccc(OCCCC(=O)NC(CO)(CO)CO)cc3)c2)[C@H](O)[C@@H](O)[C@@H]1O` [4-(4-(2-chloro-5-((2S,3R,4R,5S,6R)-3,4,5-trihydroxy-6-(methylthio)tetrahydro-2H-pyran-2-yl)benzyl)phenoxy)-N-(1,3-dihydroxy-2-(hydroxymethyl)propan-2-yl)butanamide], the IC50 is less than 100 nM in test [1] and less than 10 nM in test [2].

For `CS[C@H]1O[C@@H](c2ccc(Cl)c(Cc3ccc(OCC(=O)NCCCC[C@H](N)C(=O)O)cc3)c2)[C@H](O)[C@@H](O)[C@@H]1O` [(S)-2-amino-6-(2-(4-(2-chloro-5-((2S,3R,4R,5S,6R)-3,4,5-trihydroxy-6-(methylthio)tetrahydro-2H-pyran-2-yl)benzyl)phenoxy)acetamido)hexanoic acid], the IC50 is less than 100 nM in test [1] and less than 10 nM in test [2].

`CS[C@H]1O[C@@H](c2ccc(Cl)c(Cc3ccc(OCCCC(=O)NC(C)(C)C(=O)O)cc3)c2)[C@H](O)[C@@H](O)[C@@H]1O` [2-(4-(4-(2-chloro-5-((2S,3R,4R,5S,6R)-3,4,5-trihydroxy-6-(methylthio)tetrahydro-2H-pyran-2-yl)benzyl)phenoxy)butanamido)-2-methylpropanoic acid]: the “SGLT1 (human SGLT1 IC50)” value in test [1] was “—”. The same compound displayed an IC50 in test [2] of less than 100 nM.

On to `CS[C@H]1O[C@@H](c2ccc(C)c(Cc3ccc(OCCCC(=O)NC(C)(C)C(=O)NCCN(C)C)cc3)c2)[C@H](O)[C@@H](O)[C@@H]1O` [N-(1-((2-(dimethylamino)ethyl)amino)-2-methyl-1-oxopropan-2-yl)-4-(4-(2-methyl-5-((2S,3R,4R,5S,6R)-3,4,5-trihydroxy-6-(methylthio)tetrahydro-2H-pyran-2-yl)benzyl)phenoxy)butanamide], for which the IC50 in test [1] and in test [2] was less than 10 nM each time.

As to `CCNC(=O)CCCOc1ccc(Cc2cc([C@@H]3O[C@H](SC)[C@@H](O)[C@H](O)[C@H]3O)ccc2C)cc1` [N-ethyl-4-(4-(2-methyl-5-((2S,3R,4R,5S,6R)-3,4,5-trihydroxy-6-(methylthio)tetrahydro-2H-pyran-2-yl)benzyl)phenoxy)butanamide], the IC50 in test [1] and in test [2] was less than 10 nM in each case.

For the compound `CS[C@H]1OC(c2ccc(C)c(Cc3ccc(OCCCNC(CO)CO)cc3)c2)[C@H](O)[C@@H](O)[C@@H]1O` (stereo partly drawn) [(3R,4R,5S,6R)-2-(3-(4-(3-((1,3-dihydroxypropan-2-yl)amino)propoxy)benzyl)-4-methylphenyl)-6-(methylthio)tetrahydro-2H-pyran-3,4,5-triol], the IC50 in test [1] and in test [2] was less than 10 nM in each case.

For the compound `CS[C@H]1O[C@@H](c2ccc(C)c(Cc3ccc(OCCNC4(C(N)=O)CCCC4)cc3)c2)[C@H](O)[C@@H](O)[C@@H]1O` [1-((2-(4-(2-methyl-5-((2S,3R,4R,5S,6R)-3,4,5-trihydroxy-6-(methylthio)tetrahydro-2H-pyran-2-yl)benzyl)phenoxy)ethyl)amino)cyclopentanecarboxamide], the IC50 in test [1] is less than 100 nM; in test [2], less than 10 nM.

Take `COC(=O)CCCOc1ccc(Cc2cc([C@@H]3O[C@H](SC)[C@@H](O)[C@H](O)[C@H]3O)ccc2Cl)cc1` [methyl 4-(4-(2-chloro-5-((2S,3R,4R,5S,6R)-3,4,5-trihydroxy-6-(methylthio)tetrahydro-2H-pyran-2-yl)benzyl)phenoxy)butanoate]: the “SGLT1 (human SGLT1 IC50)” value in test [1] was “—”. For the same compound, in test [2], the “SGLT2 (human SGLT2 IC50)” value is “—”.

`CS[C@H]1O[C@@H](c2ccc(C)c(Cc3ccc(OCCCC(=O)N4CCN(C)CC4)cc3)c2)[C@H](O)[C@@H](O)[C@@H]1O` [4-(4-(2-methyl-5-((2S,3R,4R,5S,6R)-3,4,5-trihydroxy-6-(methylthio)tetrahydro-2H-pyran-2-yl)benzyl)phenoxy)-1-(4-methylpiperazin-1-yl)butan-1-one]: the IC50 in test [1] is less than 100 nM; in test [2], less than 10 nM.

As for `CS[C@H]1O[C@@H](c2ccc(C)c(Cc3ccc(/C=C/C(=O)N4CCN(C)CC4)cc3)c2)[C@H](O)[C@@H](O)[C@@H]1O` [(E)-3-(4-(2-methyl-5-((2S,3R,4R,5S,6R)-3,4,5-trihydroxy-6-(methylthio)tetrahydro-2H-pyran-2-yl)benzyl)phenyl)-1-(4-methylpiperazin-1-yl)prop-2-en-1-one], the IC50 was less than 100 nM in test [1] and less than 10 nM in test [2].

As for `CS[C@H]1O[C@@H](c2ccc(C)c(Cc3ccc(CCCC(=O)N4CCN(C)CC4)cc3)c2)[C@H](O)[C@@H](O)[C@@H]1O` [4-(4-(2-methyl-5-((2S,3R,4R,5S,6R)-3,4,5-trihydroxy-6-(methylthio)tetrahydro-2H-pyran-2-yl)benzyl)phenyl)-1-(4-methylpiperazin-1-yl)butan-1-one], the IC50 in test [1] is less than 100 nM; in test [2], less than 10 nM.

Take `CS[C@H]1O[C@@H](c2ccc(C)c(Cc3ccc(CCCCCC(=O)NC(C)(C)C(N)=O)cc3)c2)[C@H](O)[C@@H](O)[C@@H]1O` [N-(1-amino-2-methyl-1-oxopropan-2-yl)-6-(4-(2-methyl-5-((2S,3R,4R,5S,6R)-3,4,5-trihydroxy-6-(methylthio)tetrahydro-2H-pyran-2-yl)benzyl)phenyl)hexanamide]: the values for the IC50 in test [1] and in test [2] were less than 100 nM and less than 10 nM, respectively.

On to `CS[C@H]1O[C@@H](c2ccc(C)c(Cc3ccc(OCCCC(=O)NC(C)(C)C(=O)N(C)CCN(C)C)cc3)c2)[C@H](O)[C@@H](O)[C@@H]1O` [N-(1-((2-(dimethylamino)ethyl)(methyl)amino)-2-methyl-1-oxopropan-2-yl)-4-(4-(2-methyl-5-((2S,3R,4R,5S,6R)-3,4,5-trihydroxy-6-(methylthio)tetrahydro-2H-pyran-2-yl)benzyl)phenoxy)butanamide], for which the IC50 in test [1] was less than 100 nM; in test [2], less than 10 nM.

Turning to `CS[C@H]1O[C@@H](c2ccc(C)c(Cc3ccc(CCCCCNC(=O)NC(C)(C)CO)cc3)c2)[C@H](O)[C@@H](O)[C@@H]1O` [1-(1-hydroxy-2-methylpropan-2-yl)-3-(5-(4-(2-methyl-5-((2S,3R,4R,5S,6R)-3,4,5-trihydroxy-6-(methylthio)tetrahydro-2H-pyran-2-yl)benzyl)phenyl)pentyl)urea], the results for the IC50 in test [1] and in test [2] were less than 100 nM and less than 10 nM, respectively.

On to `CS[C@H]1O[C@@H](c2ccc(Cl)c(Cc3ccc(OCCCC(=O)NC(C)(C)C(N)=O)cc3)c2)[C@H](O)[C@@H](O)[C@@H]1O` [N-(1-amino-2-methyl-1-oxopropan-2-yl)-4-(4-(2-chloro-5-((2S,3R,4R,5S,6R)-3,4,5-trihydroxy-6-(methylthio)tetrahydro-2H-pyran-2-yl)benzyl)phenoxy)butanamide], for which the IC50 in test [1] and in test [2] was less than 10 nM throughout.

On to `CS[C@H]1O[C@@H](c2ccc(C)c(Cc3ccc(CCCCNC(CO)(CO)CO)cc3)c2)[C@H](O)[C@@H](O)[C@@H]1O` [(2S,3R,4R,5S,6R)-2-(3-(4-(4-((1,3-dihydroxy-2-(hydroxymethyl)propan-2-yl)amino)butyl)benzyl)-4-methylphenyl)-6-(methylthio)tetrahydro-2H-pyran-3,4,5-triol], for which the IC50 in test [1] and in test [2] was less than 10 nM in each case.
